{
  "source": "ChEMBL document CHEMBL1201862",
  "about": "“PubChem BioAssay data set” (2004)",
  "assay_in_all_cases": "NCI anticancer screen, dose series, 48 h",
  "key": {"CAKI-1": {"test_system": "CAKI-1"}, "K562": {"test_system": "K562"}, "SK-MEL-2": {"test_system": "SK-MEL-2"}, "HCT-15": {"test_system": "HCT-15"}, "HOP-62": {"test_system": "HOP-62"}, "RXF 393": {"test_system": "RXF 393"}, "HL-60": {"test_system": "HL-60"}, "COLO 205": {"test_system": "COLO 205"}, "M14": {"test_system": "M14"}, "Malme-3M": {"test_system": "Malme-3M"}, "SN12C": {"test_system": "SN12C"}, "SF-295": {"test_system": "SF-295"}, "SK-MEL-28": {"test_system": "SK-MEL-28"}, "NCI-H522": {"test_system": "NCI-H522"}, "BT-549": {"test_system": "BT-549"}, "NCI-H460": {"test_system": "NCI-H460"}, "KM12": {"test_system": "KM12"}, "HCC 2998": {"test_system": "HCC 2998"}, "UACC-257": {"test_system": "UACC-257"}, "SF-268": {"test_system": "SF-268"}, "SR": {"test_system": "SR"}, "U-251": {"test_system": "U-251"}, "PC-3": {"test_system": "PC-3"}, "UO-31": {"test_system": "UO-31"}, "MDA-MB-231": {"test_system": "MDA-MB-231"}, "CCRF-CEM": {"test_system": "CCRF-CEM"}, "OVCAR-4": {"test_system": "OVCAR-4"}, "IGROV-1": {"test_system": "IGROV-1"}, "UACC-62": {"test_system": "UACC-62"}, "NCI-H23": {"test_system": "NCI-H23"}, "MCF7": {"test_system": "MCF7"}, "A498": {"test_system": "A498"}, "NCI-H226": {"test_system": "NCI-H226"}, "OVCAR-5": {"test_system": "OVCAR-5"}, "SF-539": {"test_system": "SF-539"}, "ACHN": {"test_system": "ACHN"}, "MOLT-4": {"test_system": "MOLT-4"}, "RPMI-8226": {"test_system": "RPMI-8226"}, "NCI/ADR-RES": {"test_system": "NCI/ADR-RES"}, "EKVX": {"test_system": "EKVX"}, "SK-OV-3": {"test_system": "SK-OV-3"}, "SK-MEL-5": {"test_system": "SK-MEL-5"}, "OVCAR-8": {"test_system": "OVCAR-8"}, "A549": {"test_system": "A549"}, "HCT-116": {"test_system": "HCT-116"}, "T47D": {"test_system": "T47D"}, "HOP-92": {"test_system": "HOP-92"}, "OVCAR-3": {"test_system": "OVCAR-3"}, "MDA-MB-435": {"test_system": "MDA-MB-435"}, "SNB-19": {"test_system": "SNB-19"}, "786-0": {"test_system": "786-0"}, "Hs-578T": {"test_system": "Hs-578T"}, "HT-29": {"test_system": "HT-29"}, "DU-145": {"test_system": "DU-145"}, "TK-10": {"test_system": "TK-10"}},
  "note": "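Step 1: Grow cells in 96-well plates. Step 2: Expose to compound for 48 hours at 5 concentrations. Step 3: Interpolate endpoints linearly; if unreached, use highest concentration. GI50: concentration for 50% inhibition of growth.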 The source made the active and inactive calls. Rule as the data show it: active = GI50 up to about 1.1 µM and inactive = higher.",
  "data": [
    {"molecule": "COc1ccc(/C=C(\\C#N)c2nc(N)nc(N3N=C(C)CC3(C)C)n2)c(O)c1", "values": [
      {"measurement": "GI50", "setting": "CAKI-1", "result": "17.2 µM (inactive)"},
      {"measurement": "GI50", "setting": "K562", "result": "21.3 µM (inactive)"},
      {"measurement": "GI50", "setting": "SK-MEL-2", "result": "20.7 µM (inactive)"},
      {"measurement": "GI50", "setting": "HCT-15", "result": 17.7, "unit": "µM"},
      {"measurement": "GI50", "setting": "HOP-62", "result": "24.1 µM (inactive)"},
      {"measurement": "GI50", "setting": "RXF 393", "result": "16.1 µM (inactive)"},
      {"measurement": "GI50", "setting": "HL-60", "result": "16.5 µM (inactive)"},
      {"measurement": "GI50", "setting": "COLO 205", "result": "17 µM (inactive)"},
      {"measurement": "GI50", "setting": "M14", "result": "20.3 µM (inactive)"},
      {"measurement": "GI50", "setting": "Malme-3M", "result": "14.4 µM (inactive)"},
      {"measurement": "GI50", "setting": "SN12C", "result": "26.8 µM (inactive)"},
      {"measurement": "GI50", "setting": "SF-295", "result": "19.1 µM (inactive)"},
      {"measurement": "GI50", "setting": "SK-MEL-28", "result": "14.5 µM (inactive)"},
      {"measurement": "GI50", "setting": "NCI-H522", "result": "21.7 µM (inactive)"},
      {"measurement": "GI50", "setting": "BT-549", "result": "34 µM (inactive)"},
      {"measurement": "GI50", "setting": "NCI-H460", "result": "17.3 µM (inactive)"},
      {"measurement": "GI50", "setting": "KM12", "result": "15.6 µM (inactive)"},
      {"measurement": "GI50", "setting": "HCC 2998", "result": "19.2 µM (inactive)"},
      {"measurement": "GI50", "setting": "UACC-257", "result": "24 µM (inactive)"},
      {"measurement": "GI50", "setting": "SF-268", "result": "17.2 µM (inactive)"},
      {"measurement": "GI50", "setting": "SR", "result": "16.9 µM (inactive)"},
      {"measurement": "GI50", "setting": "U-251", "result": "26.7 µM (inactive)"},
      {"measurement": "GI50", "setting": "PC-3", "result": "37.9 µM (inactive)"},
      {"measurement": "GI50", "setting": "UO-31", "result": "17.3 µM (inactive)"},
      {"measurement": "GI50", "setting": "MDA-MB-231", "result": "17.8 µM (inactive)"},
      {"measurement": "GI50", "setting": "CCRF-CEM", "result": "40.2 µM (inactive)"},
      {"measurement": "GI50", "setting": "OVCAR-4", "result": "15.8 µM (inactive)"},
      {"measurement": "GI50", "setting": "IGROV-1", "result": "24 µM (inactive)"},
      {"measurement": "GI50", "setting": "UACC-62", "result": "17.4 µM (inactive)"},
      {"measurement": "GI50", "setting": "NCI-H23", "result": "18.8 µM (inactive)"},
      {"measurement": "GI50", "setting": "MCF7", "result": "18.5 µM (inactive)"},
      {"measurement": "GI50", "setting": "A498", "result": "28.4 µM (inactive)"},
      {"measurement": "GI50", "setting": "NCI-H226", "result": "16.7 µM (inactive)"},
      {"measurement": "GI50", "setting": "OVCAR-5", "result": "15.3 µM (inactive)"},
      {"measurement": "GI50", "setting": "SF-539", "result": "15.7 µM (inactive)"},
      {"measurement": "GI50", "setting": "ACHN", "result": "17.1 µM (inactive)"},
      {"measurement": "GI50", "setting": "MOLT-4", "result": "13.1 µM (inactive)"},
      {"measurement": "GI50", "setting": "RPMI-8226", "result": "41.3 µM (inactive)"},
      {"measurement": "GI50", "setting": "NCI/ADR-RES", "result": "31 µM (inactive)"},
      {"measurement": "GI50", "setting": "EKVX", "result": "20.5 µM (inactive)"},
      {"measurement": "GI50", "setting": "SK-OV-3", "result": "26.9 µM (inactive)"},
      {"measurement": "GI50", "setting": "SK-MEL-5", "result": "15.2 µM (inactive)"},
      {"measurement": "GI50", "setting": "OVCAR-8", "result": "32.7 µM (inactive)"},
      {"measurement": "GI50", "setting": "A549", "result": "18.8 µM (inactive)"},
      {"measurement": "GI50", "setting": "HCT-116", "result": "17.6 µM (inactive)"},
      {"measurement": "GI50", "setting": "T47D", "result": "15.9 µM (inactive)"},
      {"measurement": "GI50", "setting": "HOP-92", "result": "31.5 µM (inactive)"},
      {"measurement": "GI50", "setting": "OVCAR-3", "result": "15 µM (inactive)"},
      {"measurement": "GI50", "setting": "MDA-MB-435", "result": "16.9 µM (inactive)"},
      {"measurement": "GI50", "setting": "SNB-19", "result": "35.1 µM (inactive)"},
      {"measurement": "GI50", "setting": "786-0", "result": "16.4 µM (inactive)"},
      {"measurement": "GI50", "setting": "Hs-578T", "result": "18.3 µM (inactive)"},
      {"measurement": "GI50", "setting": "HT-29", "result": "19.2 µM (inactive)"},
      {"measurement": "GI50", "setting": "DU-145", "result": "16.7 µM (inactive)"},
      {"measurement": "GI50", "setting": "TK-10", "result": "30.2 µM (inactive)"}
    ]}
  ]
}
